Experiments:
IL-2 production = assay: Inhibition of IL-2 production (Jurkat/PHA/1% FBS, ELISA); assay type: cell-based; settings: Homo sapiens, Jurkat, 20 h, Jurkat cells, PHA 2.5 μg/mL
Protocol: JurkaT-cells were placed in a 96 well plate (0.5 million cells per well in 1% FBS medium), and then a test compound of this invention was added at different concentrations. After 10 minutes, the cells were activated with PHA (final concentration 2.5 μg/mL) and incubated for 20 hours at 37° C. under 5% CO2. The final volume was 200 μL. Following incubation, the cells were centrifuged, and the supernatants collected and stored at −70° C. prior to assaying for IL-2 production. A commercial ELISA kit (IL-2 Eli-pair, Diaclone Research, Besancon, France) was used to detect production of IL-2, from which dose response curves were obtained. The IC50 value was calculated as the concentration at which 50% of maximum IL-2 production after stimulation was inhibited versus a non-stimulation control.

[1] = biological target: T1, CRAC ion channels (ICRAC current), RBL-2H3 cells (Rattus norvegicus, UniProt Q5M848); assay: Automated patch clamp (Qpatch) inhibition of ICRAC current in RBL-2H3 cells; assay type: cell-based; settings: 100 nM compound, % ICRAC inhibition
T1 construct: endogenous in cells; host or cells: RBL-2H3 (rat basophilic leukemia) cells
Protocol: Automated patch clamp experiments are conducted with the QPatch 16 (Sophion Bioscience, Ballerup, Denmark) at room temperature (21-25° C.). Immediately following the establishment of giga-seal whole-cell configuration, the cells membrane potential is clamped at 0 mV. Voltage ramps of 50 ms duration spanning the voltage range of −100 to +100 mV are then stimulated at a rate of 0.33 Hz. Currents are filtered at 2.9 kHz and digitized at 200 μs intervals. Capacitive currents and series resistance are determined and corrected before each voltage ramp using the automatic capacitance compensation.
RBL-2H3 are grown in DMEM media supplemented with 10% fetal bovine serum, penicillin 100 U/ml and streptomycin […] in an atmosphere of 95% air/5% CO2. Cells are grown to confluence in 175 cm^2 tissue culture flask. On the experimental day, cells harvested with 0.25% trypsin/0.02% EDTA and resuspended in extracellular solution at density of 5×10^6 cells/ml.
The intracellular solution contains Cs-Glutamate 90 mM; NaCl 8 mM; MgCl2 3 mM; CsCl 20 mM; CsBAPTA 20 mM; HEPES 10 mM; InsP3 0.02 mM; pH=7.2 adjusted with CsOH.
The extracellular solution contains NMDGCl 120 mM; KCl 5.4 mM; CsCl 10 mM; CaCl2 10 mM; MgCl2 1 mM; HEPES 10 mM; Glucose 5.5 mM; at pH=7.4 adjusted with HCl.
ICRAC currents are measured using 50 msec voltage ramps between −100 mV to +100 mV. The voltage ramps are stimulated every 3 seconds for at least 570 seconds. The maximum ICRAC current is allowed to develop for at least 135 seconds. Compounds diluted in extracellular solutions are then applied twice, 30 seconds apart. After incubating the cells with compound for 435 seconds, a reference solution is applied at the end of the experiment. The reference solution is a Ca^2+ free extracellular solution.
Off-line analysis with the Qpatch software is used to plot the current value at −80 mV for each ramp trace against time. The resulting current versus time data is then exported into a Microsoft Excel spreadsheet. The ICRAC membrane currents are separated from the cells basal background currents by either subtracting out the average membrane current values during the first 1-3 traces, or the average membrane current values obtained with the reference solution at the end of the experiment. The % ICRAC inhibition in each cell is calculated by comparing the amount of current just prior to the first compound addition to the amount of current after the cells has been perfused with the compound for at least 400 seconds.

T1 sequence (Q5M848 whole entry): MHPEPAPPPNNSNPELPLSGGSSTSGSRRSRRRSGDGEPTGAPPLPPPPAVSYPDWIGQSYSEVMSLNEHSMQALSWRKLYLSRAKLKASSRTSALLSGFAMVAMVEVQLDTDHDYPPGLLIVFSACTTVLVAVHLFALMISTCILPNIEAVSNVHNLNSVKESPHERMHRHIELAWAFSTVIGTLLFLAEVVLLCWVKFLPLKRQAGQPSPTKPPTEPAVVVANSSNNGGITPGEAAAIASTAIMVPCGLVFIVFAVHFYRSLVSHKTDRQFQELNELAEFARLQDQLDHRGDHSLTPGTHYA

SMILES	IC50 (IL-2 production)	inhibition at 0.1 µM [1]
Cn1nnc(N2CCC(C3CC3)=C(c3ccc(NC(=O)c4c(F)cccc4F)cc3)C2)n1 [Compound 9]	15 nM	67%
CCc1c(F)cncc1C(=O)Nc1ccc(C2=C(C)CCN(c3nnn(C)n3)C2)cc1 [Compound 10]	16 nM	87%
CC1=C(c2ccc(NC(=O)c3c(F)cccc3F)cc2)CN(c2nnn(C)n2)CC1 [Compound 11]	17 nM	53%
CC1=C(c2ccc(NC(=O)c3cccc(F)c3F)cc2)CN(c2nnn(C)n2)CC1 [Compound 14]	18 nM	74%
CC1=C(c2ccc(NC(=O)c3ccncc3Cl)cc2)CN(c2nnn(C)n2)CC1 [Compound 15]		53%
CC1=C(c2ccc(NC(=O)c3cccc(F)c3Cl)cc2)CN(c2nnn(C)n2)CC1 [Compound 16]		69%
Cn1nnc(N2CCC(Cl)=C(c3ccc(NC(=O)c4c(F)cccc4F)cc3)C2)n1 [Compound 18]		74%
CC1=C(c2ccc(NC(=O)c3cccc(F)c3C)nc2)CN(c2nnn(C)n2)CC1 [Compound 20]		65%
CCC1=C(c2ccc(NC(=O)c3cnccc3C)cc2)CN(c2nnn(C)n2)CC1 [Compound 22]	29 nM	43%
CCn1nnc(N2CCC(C)=C(c3cnc(NC(=O)c4c(F)cccc4Cl)cn3)C2)n1 [Compound 23]		81%
CC1=C(c2ccc(NC(=O)c3ccncc3F)cc2)CN(c2nnn(C)n2)CC1 [Compound 26]	37 nM	69%
CCn1nnc(N2CCC(C)=C(c3ccc(NC(=O)c4cncc(F)c4C)cc3)C2)n1 [Compound 27]	37 nM	68%
CC1=C(c2ccc(NC(=O)c3cc(F)ccc3C)nc2)CN(c2nnn(C)n2)CC1 [Compound 29]		85%
CC1=C(c2ccc(NC(=O)c3c(C)cccc3Cl)cc2)CN(c2nnn(C)n2)CC1 [Compound 31]		72%
Cn1nnc(N2CCC(Cl)=C(c3cnc(NC(=O)c4cc(F)ccc4Cl)cn3)C2)n1 [Compound 36]		88%
CC1=C(c2cnc(NC(=O)c3cccc(F)c3F)cn2)CN(c2nnn(C)n2)CC1 [Compound 37]	50 nM	61%
CC1=C(c2ccc(NC(=O)c3cccc(F)c3C)cc2)CN(c2nnn(C)n2)CC1 [Compound 38]	51 nM	48%
Cn1nnc(N2CCC(C3CC3)=C(c3cnc(NC(=O)c4cccc(F)c4F)cn3)C2)n1 [Compound 39]	51 nM	69%
Cn1nnc(N2CCC(C3CC3)=C(c3cnc(NC(=O)c4c(F)cccc4F)cn3)C2)n1 [Compound 40]	53 nM	54%
CC1=C(c2ccc(C(=O)Nc3c(F)cccc3F)cc2)CN(c2nnn(C)n2)CC1 [Compound 41]	54 nM	60%
Cc1ccncc1C(=O)Nc1ccc(C2=C(Cl)CCN(c3nnn(C)n3)C2)cc1 [Compound 45]	59 nM	60%
CC1=C(c2ccc(NC(=O)c3ccncc3C)cc2)CN(c2nnn(C)n2)CC1 [Compound 46]	60 nM	54%
CC1=C(c2ccc(NC(=O)c3cnccc3C)cc2)CN(c2nnn(C)n2)CC1 [Compound 47]	62 nM	70%
CC1=C(c2cnc(NC(=O)c3ccccc3F)cn2)CN(c2nnn(C)n2)CC1 [Compound 54]	92 nM	77%
CC1=C(c2cnc(NC(=O)c3cc(F)ccc3Cl)cn2)CN(c2nnn(C)n2)CC1 [Compound 56]	99 nM	84%
CC1=C(c2cnc(NC(=O)c3cccc(F)c3C)cn2)CN(c2nnn(C)n2)CC1 [Compound 61]	116 nM	64%
